Assay results published in US20200289609A1, “PEPTIDOMIMETIC MACROCYCLES AND USES THEREOF” (Aileron Therapeutics, Inc., priority 2019, published 2020).

Tests used:
RKO = test: Cell viability assay (MTT), RKO; type: cell-based; details: read-out: RKO EC50 (72 h), RKO cells
Method: Row H of the plate contained the controls. Wells H1-H3 received 20 μL of assay media.
Further dilutions were used for potent peptides.
80 µL of assay media was removed from each well. […] Cell viability was analyzed against the DMSO controls.

MDM2 = MDM2 (Homo sapiens, UniProt Q00987); test: Competitive fluorescence polarization assay for MDM2; type: binding
MDM2, sequence (Q00987 1-125): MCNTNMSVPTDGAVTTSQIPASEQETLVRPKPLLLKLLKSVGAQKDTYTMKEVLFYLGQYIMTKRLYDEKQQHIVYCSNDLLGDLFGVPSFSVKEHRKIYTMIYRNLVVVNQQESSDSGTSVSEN
Method: 1 mM of FAM-labeled linear peptide (in 100% DMSO) was diluted to 100 μM with DMSO (dilution 1:10). Then, diluted solution was further diluted from 100 μM to 10 μM with water (dilution 1:10), and diluted again with FP buffer from 10 μM to 40 nM (dilution 1:250). […] The diluted FAM-labeled peptides were kept in the dark until use.
Unlabeled peptide dose plates were prepared with FP buffer starting with 1 μM (final) of the peptide. […] 10 mM of the solution (in 100% DMSO) with DMSO to 5 mM (dilution 1:2); dilution from 5 mM to 500 μM with H2O (dilution 1:10); and dilution with FP buffer from 500 μM to 20 μM (dilution 1:25). […] 10 μl of 10 nM (4×) of FAM-labeled peptide was added into each well, and the wells were incubated for 3 h before being read.

MDMX = target: T1, MDMX (Homo sapiens, UniProt O15151); test: Competitive fluorescence polarization assay for MDMX; type: binding
T1 sequence (O15151 1-125): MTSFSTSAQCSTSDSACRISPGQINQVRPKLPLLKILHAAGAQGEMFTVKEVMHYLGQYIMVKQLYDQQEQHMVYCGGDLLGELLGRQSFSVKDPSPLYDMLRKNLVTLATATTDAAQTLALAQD
Method: MDMX (40 kD) was diluted into FP buffer (high-salt buffer 200 mM NaCl, 5 mM CHAPS, pH 7.5) to make a 300 nM (2×) working stock solution. 20 μl of the 300 nM (2×) of protein stock solution was added into each well of 96-well black microplate. 1 mM (in 100% DMSO) of a FAM-labeled linear peptide was diluted with DMSO to a concentration of 100 μM (dilution 1:10). The solution was diluted from 100 μM to 10 μM with water (dilution 1:10), and diluted further with FP buffer from 10 μM to 40 nM (dilution 1:250). […] The diluted FAM-labeled peptide was kept in the dark until use. An unlabeled peptide dose plate was prepared with FP buffer starting with a concentration of 5 μM (final) of a peptide. […] 10 mM (in 100% DMSO) of the solution was diluted with DMSO to prepare a 5 mM (dilution 1:2) solution. The solution was diluted from 5 mM to 500 μM with H2O (dilution 1:10), and diluted further with FP buffer from 500 μM to 20 μM (dilution 1:25). […] 10 μl of the serially diluted unlabeled peptides were added to each well, which was filled with 20 μl of the 300 nM protein solution. 10 μl of the 10 nM (4×) FAM-labeled peptide solution was added into each well, and the wells were incubated for 3 h before reading.

gut tissue = test: Topotecan-induced mucositis (gut histopathology); type: in vivo, C57BL/6 mice; details: Group 3: […] topotecan days 2-6, 10 mice
Method: The effect of a peptidomimetic macrocycle of the disclosure on topotecan-induced mucositis is assessed in a controlled, in vivo study. Four groups of mice (10 mice per group) are involved in the study, and administration of agents occurs over a 6-day treatment period. The first group of mice (Group 1) is treated with a vehicle control on days 2, 3, 4, 5, and 6 of the treatment period. The second group of mice (Group 2) is treated intravenously with 2.4 mg/kg of a peptidomimetic macrocycle on days 1, 2, 3, 4, and 5 of a 6-day treatment period. The third group of mice (Group 3) is treated with 1.5 mg/kg of topotecan on days 2, 3, 4, 5, and 6 of the 6-day treatment period. The fourth group of mice (Group 4) is treated with 2.4 mg/kg of the peptidomimetic macrocycle on days 1, 2, 3, 4, and 5 of the 6-day treatment period and 1.5 mg/kg of topotecan on days 2, 3, 4, 5, and 6 of the 6-day treatment period. Gut samples are then taken from mice on days 7 and 9 post treatment. Histopathology analysis of gut samples is performed to assess hypertrophy/hyperplasia. In some embodiments, all gut samples from mice in Groups 1 and 2 receive a hypertrophy/hyperplasia score of 0. […]
C57BL/6 mice (n=10 per group) were divided into four treatment groups. […] Images and gut tissues and quantification of pathology scores can be seen in FIG. 24A.

H69 xenograft tumors = test: Anti-tumor activity of topotecan with AP-1, H69 model; type: in vivo, nu/nu mice; details: H69, topotecan days 1-5, FIG. 17B
Method: (§1) C57BL/6 mice bearing established syngeneic MC38 colon cancer tumors, or nu/nu mice bearing established H69 or H211 xenograft tumors were treated with topotecan on days 1-5 and either AP-1 or vehicle on days 0-4. Median tumor volume and mouse survival was assessed.

MC38 colon cancer tumors = test: Anti-tumor activity of topotecan with AP-1, MC38 model; type: in vivo, C57BL/6 mice; details: MC38, topotecan days 1-5, FIG. 17A
Method: as §1

H211 xenograft tumors = test: Anti-tumor activity of topotecan with AP-1, H211 model; type: in vivo, nu/nu mice; details: H211, topotecan days 1-5, FIG. 17C
Method: as §1

For `CC(=O)N[C@@H](CC(C)C)C(=O)N[C@H](C(=O)N[C@@H](Cc1ccccc1)C(=O)N[C@]1(C)CCCCCCC=CCCC[C@@](C)(C(=O)N[C@@H](CO)C(=O)N[C@@H](C)C(=O)N[C@@H](C)C(N)=O)NC(=O)[C@H](CC2CCCCC2)NC(=O)[C@H](CCC(N)=O)NC(=O)[C@H](C)NC(=O)[C@H](Cc2c[nH]c3ccccc23)NC(=O)[C@H](Cc2ccc(O)cc2)NC(=O)[C@H](CCC(=O)O)NC1=O)[C@@H](C)O` (single isomer, unassigned) [compound 148], which EC50 (RKO) is on record?
Its EC50 is 1 to 30 µM.

`CC(=O)N[C@@H](CC(C)C)C(=O)N[C@H](C(=O)N[C@@H](Cc1ccccc1)C(=O)N[C@]1(C)CCCCCCC=CCCC[C@@](C)(C(=O)N[C@@H](CO)C(=O)N[C@@H](C)C(=O)N[C@@H](C)C(N)=O)NC(=O)[C@H](C2CCCC2)NC(=O)[C@H](CCC(N)=O)NC(=O)[C@H](C)NC(=O)[C@H](Cc2c[nH]c3ccccc23)NC(=O)[C@H](Cc2ccc(O)cc2)NC(=O)[C@H](CCC(=O)O)NC1=O)[C@@H](C)O` (single isomer, unassigned) [compound 150] was tested. Which EC50 (RKO) did it give?
The EC50 was 1 to 30 µM.

Which IC50 (MDM2) does the source give for `CC(=O)N[C@@H](CC(C)C)C(=O)N[C@H](C(=O)N[C@@H](C)C(=O)N[C@]1(C)CCCCCCC=CCCC[C@@](C)(C(=O)N[C@@H](CO)C(=O)N[C@@H](C)C(=O)N[C@@H](C)C(N)=O)NC(=O)[C@H](CC2CCC2)NC(=O)[C@H](CCC(N)=O)NC(=O)[C@H](C)NC(=O)[C@H](Cc2c[nH]c3ccccc23)NC(=O)[C@H](Cc2ccc(O)cc2)NC(=O)[C@H](CCC(=O)O)NC1=O)[C@@H](C)O` (single isomer, unassigned) [compound 252] here?
The IC50 was 0.1 to 1 µM.

What about the Ki (MDM2) of the same molecule?
The Ki was 0.1 to 1 µM.

What about the IC50 (MDMX) of the same molecule?
The IC50 was > 1 µM.

And the Ki (MDMX)?
Its Ki is > 1 µM.

`CC(=O)N[C@@H](CCC(=O)O)C(=O)N[C@H](C(=O)N[C@@H](Cc1ccccc1)C(=O)N[C@]1(C)CCCCCCC=CCCC[C@@](C)(C(=O)N[C@@H](C)C(=O)N[C@@H](C)C(=O)N[C@@H](C)C(=O)N[C@@H](C)C(=O)N[C@@H](C)C(=O)N[C@H](C)C(N)=O)NC(=O)[C@H](CC(C)C)NC(=O)[C@H](CCC(N)=O)NC(=O)[C@H](C)NC(=O)[C@H](Cc2c[nH]c3ccccc23)NC(=O)[C@H](Cc2ccc(O)cc2)NC(=O)[C@H](CCC(=O)O)NC1=O)[C@@H](C)O` (single isomer, unassigned) [compound 341] was tested. Which EC50 (RKO) did it give?
The EC50 was 1 to 30 µM.

How did the EC50 (RKO) turn out when `CC(=O)N[C@@H](CC(C)C)C(=O)N[C@H](C(=O)N[C@@H](Cc1ccccc1)C(=O)N[C@]1(C)CCCCCCC=CCCC[C@@](C)(C(=O)N[C@@H](CO)C(=O)N[C@@H](C)C(=O)N[C@@H](C)C(=O)N[C@H](C)C(N)=O)NC(=O)[C@H](CC2CCC2)NC(=O)[C@H](CCC(N)=O)NC(=O)[C@H](C)NC(=O)[C@H](Cc2c[nH]c3ccccc23)NC(=O)[C@H](Cc2ccc(O)cc2)NC(=O)[C@H](CCC(=O)O)NC1=O)[C@@H](C)O` (single isomer, unassigned) [compound 353] was run?
The EC50 was 1 to 30 µM.

For `CC(=O)N[C@@H](C)C(=O)N[C@@H](CC(C)C)C(=O)N[C@H](C(=O)N[C@@H](Cc1ccccc1)C(=O)N[C@]1(C)CCCCCCC=CCCC[C@@](C)(C(=O)N[C@@H](CO)C(=O)N[C@@H](C)C(=O)N[C@@H](C)C(=O)N[C@H](C)C(N)=O)NC(=O)[C@H](CC2CCC2)NC(=O)[C@H](CCC(N)=O)NC(=O)[C@H](C)NC(=O)[C@H](Cc2c[nH]c3ccccc23)NC(=O)[C@H](Cc2ccc(O)cc2)NC(=O)[C@H](CCC(=O)O)NC1=O)[C@@H](C)O` (single isomer, unassigned) [compound 355], which EC50 (RKO) is on record?
The EC50 was 1 to 30 µM.

`CC(=O)N[C@@H](C)C(=O)N[C@@H](C)C(=O)N[C@@H](CC(C)C)C(=O)N[C@H](C(=O)N[C@@H](Cc1ccccc1)C(=O)N[C@]1(C)CCCCCCC=CCCC[C@@](C)(C(=O)N[C@@H](CO)C(=O)N[C@@H](C)C(=O)N[C@@H](C)C(=O)N[C@@H](C)C(=O)N[C@H](C)C(N)=O)NC(=O)[C@H](CC2CCC2)NC(=O)[C@H](CCC(N)=O)NC(=O)[C@H](C)NC(=O)[C@H](Cc2c[nH]c3ccccc23)NC(=O)[C@H](Cc2ccc(O)cc2)NC(=O)[C@H](CCC(=O)O)NC1=O)[C@@H](C)O` (single isomer, unassigned) [compound 358] was tested. Which EC50 (RKO) did it give?
The EC50 was 1 to 30 µM.

For `CC(=O)N[C@@H](C)C(=O)N[C@@H](C)C(=O)N[C@@H](CC(C)C)C(=O)N[C@H](C(=O)N[C@@H](Cc1ccccc1)C(=O)N[C@]1(C)CCCCCCC=CCCC[C@@](C)(C(=O)N[C@@H](CO)C(=O)N[C@@H](C)C(=O)N[C@@H](C)C(=O)N[C@@H](C)C(=O)N[C@H](C)C(N)=O)NC(=O)[C@H](CC2CCC2)NC(=O)[C@H](CCC(N)=O)NC(=O)[C@H](C)NC(=O)[C@H](Cc2c[nH]c3ccccc23)NC(=O)[C@H](Cc2ccc(O)cc2)NC(=O)[C@H](CCC(=O)O)NC1=O)[C@@H](C)O` (single isomer, unassigned) [compound 359], which EC50 (RKO) is on record?
Its EC50 is 1 to 30 µM.

With `CC[C@H](C)[C@H](NC(=O)[C@H](C)NC(=O)[C@H](C)NC(=O)[C@]1(C)CCCC=CCCCCCC[C@@](C)(NC(=O)[C@H](Cc2ccccc2)NC(=O)[C@@H](NC(=O)[C@H](CC(C)C)NC(=O)CN(C)C)[C@@H](C)O)C(=O)N[C@@H](CCC(=O)O)C(=O)N[C@@H](Cc2ccc(C(=O)O)cc2)C(=O)N[C@@H](Cc2c[nH]c3ccccc23)C(=O)N[C@@H](C)C(=O)N[C@@H](CCC(N)=O)C(=O)N[C@@H](CC2CCC2)C(=O)N1)C(=O)N[C@H](C)C(N)=O` (single isomer, unassigned) [compound 440] as the molecule, how does the EC50 (RKO) read?
Its EC50 is 1 to 30 µM.

With `CCCC[C@H](NC(=O)[C@H](C)NC(=O)[C@H](C)NC(=O)[C@]1(C)CCC/C=C/CCCCCC[C@@](C)(NC(=O)[C@H](Cc2ccccc2)NC(=O)[C@@H](NC(=O)[C@H](CC(C)C)NC(C)=O)[C@@H](C)O)C(=O)N[C@@H](C)C(=O)N[C@@H](Cc2ccc(O)cc2)C(=O)N[C@@](C)(Cc2c[nH]c3ccccc23)C(=O)N[C@@H](C)C(=O)N[C@@H](CCC(N)=O)C(=O)N[C@@H](CC(C)C)C(=O)N1)C(=O)N[C@@H](C)C(N)=O` [compound 388] as the molecule, how does the EC50 (RKO) read?
Its EC50 is 1 to 30 µM.

For `CC(C)C[C@H](NC(=O)CN(C)C)C(=O)N[C@H](C(=O)N[C@@H](Cc1ccccc1)C(=O)N[C@]1(C)CCCCCCC=CCCC[C@@](C)(C(=O)N[C@@H](CO)C(=O)N[C@@H](C)C(=O)N[C@@H](C)C(N)=O)NC(=O)[C@H](CC2CCC2)NC(=O)[C@H](CCC(N)=O)NC(=O)[C@H](C)NC(=O)[C@H](Cc2c[nH]c3ccccc23)NC(=O)[C@H](Cc2ccc(O)cc2)NC(=O)[C@H](CCC(=O)O)NC1=O)[C@@H](C)O` [compound 435], which EC50 (RKO) is on record?
The EC50 was 1 to 30 µM.

Which “mice with hyperplasia/hypertrophy score of 3” value (gut tissue) does the source give for `CC[C@@]1(O)C(=O)OCc2c1cc1n(c2=O)Cc2cc3c(CN(C)C)c(O)ccc3nc2-1` [topotecan] here?
Its value is “about 70%”.

What about the “mice with hypertrophy/hyperplasia score of 2” value (gut tissue) of the same molecule?
The value was “about 30%”.

What about the survival (H69 xenograft tumors) of the same molecule?
The survival was “increased”.

What about the tumor volumes (H69 xenograft tumors) of the same molecule?
Its tumor volumes is “decreased”.

And the survival (MC38 colon cancer tumors)?
The survival was “increased”.

And the tumor volumes (MC38 colon cancer tumors)?
Its tumor volumes is “decreased”.

And the survival (H211 xenograft tumors)?
Its survival is “increased”.

What about the tumor volumes (H211 xenograft tumors) of the same molecule?
The tumor volumes was “decreased”.
